Data published in patent US20210181109A1 (FUJIFILM Corporation, priority 2018, published 2021).

Experiments:
[1] = NAL depletion percent, HPLC-fluorescence detection
Procedure: (§1) 1) To a 50 mL vessel, 12.6 mg (±0.1 mg) of NAL is weighed; to this, a 25 mL measuring pipet is used to add 20 mL of 100 mmol/L phosphate buffer (pH: 10.2); and the content is gently stirred using a test tube mixture to achieve dissolution (2 mmol/L NAL solution). 2) To a 500 mL vessel, 149.5 mL of this buffer is added using a 50 mL measuring pipet; to this, 0.5 mL of the above-described 2 mmol/L NAL solution is added; and the content is mixed by inversion to achieve 300-fold dilution (6.667 μmol/L).
(§2) The test substance undiluted solution is defined as an “undiluted solution”, and used. Incidentally, this “undiluted solution” may be appropriately diluted to, for example, 1/10, 1/100, or 1/1000, using an appropriate solvent, and the resultant solution may be used.
(§3) Subsequently, the solution having the maximum dissolution concentration is defined as an “undiluted solution”, and tested. Incidentally, this “undiluted solution” may be appropriately diluted to, for example, 1/10, 1/100, or 1/1000, using an appropriate solvent, and the resultant solution may be used.
(§4) The test substance is prepared at 1 mmol/L in any of solvents that are water, acetonitrile, acetone, and a 5 mass % dimethyl sulfoxide (DMSO)/acetonitrile solution and used as a test substance solution. As the solvent, a solvent in which the test substance dissolves at 1 mmol/L is used; when the test substance is soluble in a plurality of solvents, the solvent is selected in the following order of decreasing precedence: water, acetonitrile, acetone, and 5 mass % DMSO/acetonitrile.
(§5) Test substance solutions are prepared on a 96-well plate (U96 PP-0.5 ML NATURAL, Thermo Fisher Scientific Inc. (NUNC)) mainly using a 12-channel pipette, and a reagent is added in accordance with the following formula.
(§6) Nucleophilic reagent (NAC and NAL): 150 μL
(§7) Test substance solution: 50 μL
(§8) The plate is tightly sealed using a plate sealing (Resistant embossed seal, SHIMADZU GLC Ltd.), and stirred using a plate shaker (Titramax 100, Heidolph Instruments GmbH & CO. KG). The plate is subjected to spinning down using a centrifuge, and then to incubation at 25° C., for 24 hours, in a light-shielded state.
(§9) After the incubation for 24 hours, the plate sealing is removed; to each sample, 50 µL of the reaction stopping solution is added to stop the reaction.
(§10) The HPLC measurement conditions for the nucleophilic reagents are as follows.
(§11) From the average values (each, n=3) of peak areas of the post-reaction unreacted NAC or NAL and the blank-test (after performing the reaction step without addition of the test substances) NAC or NAL, the following formula is used to calculate the depletion percent of NAC or NAL.
(§12) NAL depletion percent (% depletion)=[1−(Average value of peak areas of post-reaction unreacted NAL/Average value of peak areas of blank-test (after performing the reaction step without addition of the test substances) NAL)]×100
(§13) The average value of peak areas of post-reaction unreacted NAL is the average value of areas obtained by measuring three times post-reaction unreacted NAL. The average value of peak areas of blank-test (after performing the reaction step without addition of the test substances) NAL is the average value of areas obtained by measuring three times blank-test (after performing the reaction step without addition of the test substances) NAL.
(§14) The reactions were each performed on a 96-well plate, and the number of samples of each case was set to n=3. In addition, as controls, reaction solutions including the solvent alone were prepared. The reaction solutions were prepared so as to have a NAC or NAL concentration of 5 μmon. To the reaction solutions after the lapse of 24 hours, a trifluoroacetic acid (TFA) aqueous solution was added such that the final concentration became 0.5% (v/v) TFA. Subsequently, HPLC was performed for measurements by two detection methods that were light absorption detection using a photodiode array (PDA) detector, and fluorescence detection using a fluorescence detector.

[2] = Average score of NAC and NAL depletion and prediction of skin allergenicity, UV method; details: for Average score: single substance, test substance solution 1 mmol/L
Procedure: (§15) The average value (Average Score) of NAC and NAL depletion percents is calculated. In the resultant value, the second decimal place is rounded off.
(§16) Average value (Average Score) of NAC and NAL depletion percents=(NAC depletion percent+NAL depletion percent)/2
(§17) The depletion percent of at least one of NAC or NAL or the average score of the depletion percents of NAC and NAL is calculated, and whether or not the test substances are “allergenic substances” or “non-allergenic substances” is determined:
(§18) (1) in a case of performing evaluation based on the average value of the depletion percent of NAC and the depletion percent of NAL,
(§19) In the following Tables, S represents as being an allergenic substance and NS represents as being a non-allergenic substance.

[3] = NAC depletion percent, HPLC-UV detection (281 nm); details: Reference (UV method)
Procedure: as §1, with “11.6” for “12.6”, “NAC” for “NAL”, “8.0);” for “10.2);”, “mixer” for “mixture”, “mmol/L).” for “mmol/L NAL solution).”, “μmon).” for “μmol/L).”
as §2, §3, §4, §5, §6, §7, §8, §9, §10, §11
(§20) NAC depletion percent (% depletion)=[1−(Average value of peak areas of post-reaction unreacted NAC/Average value of peak areas of blank-test (after performing the reaction step without addition of the test substances) NAC)]×100
(§21) The average value of peak areas of the post-reaction unreacted NAC is the average value of areas obtained by measuring three times post-reaction unreacted NAC. The average value of peak areas of blank-test (after performing the reaction step without addition of the test substances) NAC is the average value of areas obtained by measuring three times blank-test (after performing the reaction step without addition of the test substances) NAC.
as §14

[4] = Average score of NAC and NAL depletion and prediction of skin allergenicity, fluorescence method; details: for Average score: single substance, test substance solution 1 mmol/L, fluorescence method
Procedure: as §15, §16, §17, §18, §19

[5] = NAL depletion percent, HPLC-UV detection (281 nm); details: Reference (UV method)
Procedure: as §1, §2, §3, §4, §5, §6, §7, §8, §9, §10, §11, §12, §13, §14

[6] = NAC depletion percent, HPLC-fluorescence detection
Procedure: as §1, with “11.6” for “12.6”, “NAC” for “NAL”, “8.0);” for “10.2);”, “mixer” for “mixture”, “mmol/L).” for “mmol/L NAL solution).”, “μmon).” for “μmol/L).”
as §2, §3, §4, §5, §6, §7, §8, §9, §10, §11, §20, §21, §14

[7] = Fluorescence method, non-allergenic substance
[8] = Reference (UV method), skin allergenicity prediction
[9] = Fluorescence method, skin allergenicity prediction
[10] = single substance, test substance solution 1 mmol/L, fluorescence method
[11] = single substance, test substance solution 1 mmol/L

CC(O)C(=O)O (centres unmarked) [Lactic acid]
NAL depletion (%) [1, 7]: 0.0%
Prediction result [2, 8]: NS (NS represents as being a non-allergenic substance)
NAC depletion (%) ([3]; non-allergenic substance): 0.0%
Prediction result [4, 9]: NS (NS represents as being a non-allergenic substance)
NAL depletion (%) ([5]; non-allergenic substance): 2.8%
NAC depletion (%) [6, 7]: 1.4%

CC(C=O)Cc1ccc(C(C)(C)C)cc1 (centres unmarked) [Lilial]
NAL depletion (%) [1, 10]: 0.2%
Prediction result [2]: S (key: S represents as being an allergenic substance; NS represents as being a non-allergenic substance)
Average score ([2]; Reference (UV method)): 5.4%
NAC depletion (%) [3, 11]: 7.0%
Prediction result [4]: S (key: S represents as being an allergenic substance; NS represents as being a non-allergenic substance)
Average score [4]: 9.1%
NAL depletion (%) [5, 11]: 3.9%
NAC depletion (%) [6, 10]: 18.0%

COC(=O)c1ccccc1O [Methyl salicylate]
NAL depletion (%) [1, 7]: 0.0%
Prediction result [2, 8]: NS (NS represents as being a non-allergenic substance)
NAC depletion (%) ([3]; non-allergenic substance): 0.0%
Prediction result [4, 9]: NS (NS represents as being a non-allergenic substance)
NAL depletion (%) ([5]; non-allergenic substance): 0.4%
NAC depletion (%) [6, 7]: 0.3%

COC(=O)c1ccc(O)cc1 [Methylparaben]
NAL depletion (%) [1, 7]: 4.7%
Prediction result [2, 8]: NS (NS represents as being a non-allergenic substance)
NAC depletion (%) ([3]; non-allergenic substance): 0.1%
Prediction result [4, 9]: NS (NS represents as being a non-allergenic substance)
NAL depletion (%) ([5]; non-allergenic substance): 1.3%
NAC depletion (%) [6, 7]: 0.7%

CCCCCCCC(=O)O [Octanoic acid]
NAL depletion (%) [1, 7]: 0.0%
Prediction result [2, 8]: NS (NS represents as being a non-allergenic substance)
NAC depletion (%) ([3]; non-allergenic substance): 0.0%
Prediction result [4, 9]: NS (NS represents as being a non-allergenic substance)
NAL depletion (%) ([5]; non-allergenic substance): 1.2%
NAC depletion (%) [6, 7]: 0.0%

O=C(O)C(=O)O [Oxalic acid]
NAL depletion (%) [1, 10]: 0.3%
Average score ([2]; Reference (UV method)): 1.8%
NAC depletion (%) [3, 11]: 0.0%
Average score [4]: 0.1%
NAL depletion (%) [5, 11]: 3.6%
NAC depletion (%) [6, 10]: 0.0%
